Reference: patent US20250099448A1, “HETEROCYCLIC COMPOUNDS” (Hoffmann-La Roche Inc., priority 2022, published 2025)

molecular target: T1, MAGL protein (Homo sapiens, UniProt Q99685); assay: 2-AG assay: MAGL inhibitory activity by hydrolysis of 2-arachidonoylglycerol to arachidonic acid, followed by mass spectrometry; format: biochemical; conditions: 8 μM 2-arachidonoylglycerol, 15 min preincubation, 30 min reaction at RT, RapidFire MS readout
T1 sequence (Q99685 1-303): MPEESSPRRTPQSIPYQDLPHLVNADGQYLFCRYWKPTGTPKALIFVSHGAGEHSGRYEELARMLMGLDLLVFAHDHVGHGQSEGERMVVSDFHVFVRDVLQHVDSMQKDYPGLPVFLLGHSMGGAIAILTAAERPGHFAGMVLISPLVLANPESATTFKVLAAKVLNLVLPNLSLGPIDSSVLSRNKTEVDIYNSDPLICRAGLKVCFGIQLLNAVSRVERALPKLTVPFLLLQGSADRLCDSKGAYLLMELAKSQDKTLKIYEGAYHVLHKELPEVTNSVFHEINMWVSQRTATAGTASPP
Summary of the method: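 Activity was measured by RapidFire SPE–triple-quad MS as the ratio of arachidonic acid to d8-arachidonic acid after 2-AG hydrolysis (8 μM substrate, 30 min, RT, acetonitrile quench). Compounds, tested from 12.5 μM down to […], were first preincubated 15 min with MAGL in TRIS/EDTA/Tween-20 buffer containing 2.5% DMSO.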

Compound | IC50
O=C(N1CC(C23CC(C(F)(F)c4ccc(C(F)(F)F)cc4)(C2)C3)C1)N1CC2(CC(c3nc(C4CC4)n[nH]3)C2)C1 [compound 798] | 2.4 nM
O=C(N1CCC(C23CC(c4nnc(C5(C(F)(F)F)CC5)o4)(C2)C3)CC1)N1CC2(CC(c3nc(C4(O)CC4)n[nH]3)C2)C1 [compound 706] | 280 nM
Cc1csc(CN2CC3(C2)CN(C(=O)N2CC4(CC(c5nnc(C6CC6)[nH]5)C4)C2)C3)n1 [Example 895, [6-(5-cyclopropyl-4H-1,2,4-triazol-3-yl)-2-azaspiro[3.3]heptan-2-yl]-[6-[(4-methylthiazol-2-yl)methyl]-2,6-diazaspiro[3.3]heptan-2-yl]methanone] | 23.5 nM
CC(C)(C(=O)O)c1cccc(OC2CN(C(=O)N3CC4(CC(c5nnc(C6CC6)[nH]5)C4)C3)C2)c1 [Example 387, 2-[3-[1-[6-(5-cyclopropyl-4H-1,2,4-triazol-3-yl)-2-azaspiro[3.3]heptane-2-carbonyl]azetidin-3-yl]oxyphenyl]-2-methyl-propanoic Acid] | 79.6 nM
CC(C)(C)Cc1nnc(C23CC(C4CN(C(=O)N5CC6(CC(c7nc(C8(F)CC8)n[nH]7)C6)C5)C4)(C2)C3)s1 [compound 492] | 3.84 nM
O=C(N1CC2(CC(c3nc(C4CC4)n[nH]3)C2)C1)N1CC2(CN(Cc3nnc(C(F)(F)F)s3)C2)C1 [compound 485] | 64.5 nM
CS(=O)(=O)c1cc(F)cc(CC2CC3(C2)CN(C(=O)N2CC4(CC(c5nnc(C6CC6)[nH]5)C4)C2)C3)c1 [compound 18] | 0.3 nM
O=C(N1CC2(CC(c3nc(C4(O)CC4)n[nH]3)C2)C1)N1CC2(CC[C@@H](Cc3cccc(S(=O)(=O)C(F)(F)F)c3)C2)C1 [compound 726] | 0.1 nM
O=C(N1CCC(COc2cc(F)cc(C(F)(F)F)c2)CC1)N1CC2(CC(c3nc(C4(O)CC4)n[nH]3)C2)C1 [Example 921, [4-[[3-fluoro-5-(trifluoromethyl)phenoxy]methyl]piperidino]-[6-[3-(1-hydroxycyclopropyl)-1H-1,2,4-triazol-5-yl]-2-azaspiro[3.3]heptan-2-yl]methanone] | 31.5 nM
O=C(N1CC(c2ccc(-n3ccc(C(F)(F)F)n3)cc2)C1)N1CC2(CC(c3nnc(C4CC4)[nH]3)C2)C1 [compound 873] | 0.67 nM
CS(=N)(=O)c1ccc(CC2CC3(C2)CN(C(=O)N2CC4(CC(c5nc(C6CC(F)(F)C6)n[nH]5)C4)C2)C3)cc1 (centres unmarked) [compound 976] | 1790 nM
CS(=O)(=O)c1cccc(CC2CC3(C2)CN(C(=O)N2CC4(CC(c5nnc(C6CCC6)[nH]5)C4)C2)C3)c1 [compound 17] | 15.2 nM
O=C(N1CC2(CC(c3nc(C4CC4)n[nH]3)C2)C1)N1CC2(CN(Cc3ccn(CC(F)(F)F)n3)C2)C1 [compound 618] | 95.1 nM
O=C(N1CC2(CC(c3nnc(C4CC4)[nH]3)C2)C1)C12C3C4C1C1C2C3C41Nc1cnc(C(F)(F)F)cn1 (centres unmarked) [Example 811, [6-(5-cyclopropyl-4H-1,2,4-triazol-3-yl)-2-azaspiro[3.3]heptan-2-yl]-[4-[[5-(trifluoromethyl)pyrazin-2-yl]amino]cuban-1-yl]methanone] | 0.43 nM
O=C(N1CC2(CC(c3nnc(C4CC4)[nH]3)C2)C1)N1CC2(C1)CN(S(=O)(=O)c1ccccc1OC(F)(F)F)C2 [compound 94] | 3.88 nM
CC(C)(C)c1conc1CN1CC2(C1)CN(C(=O)N1CC3(CC(c4nc(C5CC5)n[nH]4)C3)C1)C2 [compound 591] | 3.64 nM
O=C(N1CC(C23CC(Nc4cnc(C(F)(F)F)cn4)(C2)C3)C1)N1CC2(CC(c3nc(C4CC4)n[nH]3)C2)C1 [compound 699] | 0.34 nM
NC1(c2nnc(C3CC4(C3)CN(C(=O)N3CC5(CC(Cc6ccc(C(F)(F)F)cc6F)C5)C3)C4)[nH]2)CC1 [Example 852, [6-[5-(1-aminocyclopropyl)-4H-1,2,4-triazol-3-yl]-2-azaspiro[3.3]heptan-2-yl]-[6-[[2-fluoro-4-(trifluoromethyl)phenyl]methyl]-2-azaspiro[3.3]heptan-2-yl]methanone] | 0.06 nM
O=C(N1CC2(CCN(Cc3cc(C(F)(F)F)on3)CC2)C1)N1CC2(CC(c3nc(C4CC4)n[nH]3)C2)C1 [compound 544] | 8.72 nM
CS(=O)(=O)c1ccc(CC2CC3(C2)CN(C(=O)N2CC4(CC(c5nnc(C6CC6)[nH]5)C4)C2)C3)cc1C(F)(F)F [compound 46] | 0.9 nM
CC(C)(C)Cc1nnc(C23CC(C4CN(C(=O)N5CC6(CC(c7nnc(C8CC8)[nH]7)C6)C5)C4)(C2)C3)o1 [compound 343] | 0.97 nM
O=C(N1CC2(CC(c3nc(C4(O)CC4)n[nH]3)C2)C1)N1CC2(CC[C@@H](Cc3ccc(S(=O)(=O)C(F)(F)F)cc3)C2)C1 [compound 599] | 0.84 nM
O=C(N1CC2(CC(Cc3ncc(F)cc3Cl)C2)C1)N1CC2(CC(c3nc(C4CC(F)(F)C4)n[nH]3)C2)C1 [compound 617] | 8.16 nM
N=S(=O)(c1ccc(OC2CC3(C2)CN(C(=O)N2CC4(CC(c5nc(C6CC6)n[nH]5)C4)C2)C3)cc1)C(F)(F)F (centres unmarked) [compound 730] | 2.01 nM

Compound | IC50
Cc1csc(C(=O)N2CCN(C(=O)N3CC4(CC(c5nnc(C6CC6)[nH]5)C4)C3)CC2)c1 [Example 872, [4-[6-(5-cyclopropyl-4H-1,2,4-triazol-3-yl)-2-azaspiro[3.3]heptane-2-carbonyl]piperazino]-(4-methyl-2-thienyl)methanone] | 1040 nM
O=C(N1CC2(CC(Cn3ccc(C(F)(F)F)n3)C2)C1)N1CC2(CC(c3nc(C4CC4)n[nH]3)C2)C1 [compound 844] | 0.71 nM
O=C(N1CC2(CCC(Nc3cnc(C(F)(F)F)cn3)CC2)C1)N1CC2(CC(c3nnc(C4CC4)[nH]3)C2)C1 [compound 351] | 3.59 nM
Cc1cc(C)n(-c2ccc(C3CN(C(=O)N4CC5(CC(c6nnc(C7CC7)[nH]6)C5)C4)C3)cc2)n1 [compound 294] | 0.56 nM
N=S(=O)(c1ccc(COC2CN(C(=O)N3CC4(CC(c5nc(C6CC6)n[nH]5)C4)C3)C2)c(F)c1)C(F)(F)F (centres unmarked) [Example 632, [6-(3-cyclopropyl-1H-1,2,4-triazol-5-yl)-2-azaspiro[3,3]heptan-2-yl]-[3-[2-fluoro-4-(trifluoromethylsulfonimidoyl)benzyl]oxyazetidin-1-yl]methanone] | 12.3 nM
O=C(N1CC2(CC(c3nc(C4CC4)n[nH]3)C2)C1)N1CC2(CN(Cc3nc(C(F)(F)F)cs3)C2)C1 [compound 430] | 5.22 nM
N#Cc1cc(CC2CC3(C2)CN(C(=O)N2CC4(CC(c5nc(C6(F)CC6)n[nH]5)C4)C2)C3)cc(C(F)(F)F)c1 [compound 464] | 0.07 nM
O=C(N1CC2(CC(Cc3ccc(C(F)(F)F)cn3)C2)C1)N1CC2(CC(c3nc(C4COC4)n[nH]3)C2)C1 [compound 824] | 10.3 nM
Cn1cc(-c2ccc(C3CN(C(=O)N4CC5(CC(c6nnc(C7CC7)[nH]6)C5)C4)C3)cc2)c(C(F)(F)F)n1 [compound 834] | 0.06 nM
O=C(N1CC2(CC(c3nc(C4CC4)n[nH]3)C2)C1)N1CC2(CC[C@H](Cc3cccc(S(=O)(=O)C(F)(F)F)c3)C2)C1 [compound 594] | 0.02 nM
O=C(N1CC2(CC(Cc3ccc(F)cn3)C2)C1)N1CC2(CC(c3nnc(C4CC4)[nH]3)C2)C1 [compound 43] | 0.58 nM
O=C(N1CC(C23CC(c4nnc(CC(F)(F)F)o4)(C2)C3)C1)N1CC2(CC(c3nnc(C4CC4)[nH]3)C2)C1 [compound 344] | 7.59 nM
O=C(N1CC2(CC(Cn3cc(C4(C(F)(F)F)CC4)cn3)C2)C1)N1CC2(CC(c3nc(C4CC4)n[nH]3)C2)C1 [compound 711] | 0.2 nM
Cc1sc(-c2ccc(C3CN(C(=O)N4CC5(CC(c6nnc(C7CC7)[nH]6)C5)C4)C3)cc2)nc1C(C)O (centres unmarked) [Example 840, [6-(5-cyclopropyl-4H-1,2,4-triazol-3-yl)-2-azaspiro[3.3]heptan-2-yl]-[3-[4-[4-(1-hydroxyethyl)-5-methyl-thiazol-2-yl]phenyl]azetidin-1-yl]methanone] | 2.91 nM
O=C(N1CC(C23CC(c4nnc(C5(C(F)(F)F)CC5)o4)(C2)C3)C1)N1CC2(CC(c3nc(C4(O)CC4)n[nH]3)C2)C1 [compound 573] | 904 nM
CS(=O)(=O)c1ccc(CC2CCC3(C2)CN(C(=O)N2CC4(CC(c5nnc(C6CC6)[nH]5)C4)C2)C3)cc1 (centres unmarked) [compound 77] | 0.69 nM
O=C(N1CC(c2ccc(C3CC(O)(C(F)(F)F)C3)cc2)C1)N1CC2(CC(c3nnc(C4CC4)[nH]3)C2)C1 (centres unmarked) [compound 291] | 0.57 nM
O=C(N1CC(c2ccc([C@H]3C[C@H](C(F)F)C3)nc2)C1)N1CC2(CC(c3nnc(C4CC4)[nH]3)C2)C1 [compound 301] | 1.69 nM
CCNC(=O)c1ccccc1-c1ccc(C2CN(C(=O)N3CC4(CC(c5nnc(C6CC6)[nH]5)C4)C3)C2)cc1 [Example 391, 2-[4-[1-[6-(5-cyclopropyl-4H-1,2,4-triazol-3-yl)-2-azaspiro[3.3]heptane-2-carbonyl]azetidin-3 yl]phenyl]-N-ethyl-benzamide] | 48.3 nM
O=C(N1CC2(CC(Cc3ccc(S(=O)(=O)C4CC4)cc3)C2)C1)N1CC2(CC(c3nc(C4(O)CC4)n[nH]3)C2)C1 [compound 505] | 1.3 nM
O=C(N1CC2(CC(Cc3ccc(OC(F)(F)F)cn3)C2)C1)N1CC2(CC(c3ncn[nH]3)C2)C1 [compound 721] | 544 nM
O=C(N1CC2(CC(Cc3cc(C(F)(F)F)n[nH]3)C2)C1)N1CC2(CC(c3nc(C4(O)CC4)n[nH]3)C2)C1 [compound 589] | 0.59 nM
O=C(N1CC(NCc2ccc(OC(F)(F)F)cc2F)C1)N1CC2(CC(c3nnc(C4CC4)[nH]3)C2)C1 [compound 189] | 38.6 nM
